Several values for one entry are separate records, joined by “and”; a condition that tells them apart may be missing. Equal entries are not always repeated. Where two headings read alike, the source gives them in different places.
Assays:
[1] = test system: PANC-1, Fadu, A2058 and EBC-1 cell lines; set-up: method as in PMID 35455465; settings: 10 µM; cited from earlier work
[2] = test system: PANC-1 cells; assay: CellTiter-Glo luminescent cell viability assay, PANC-1; settings: for PANC-1 Cell viability (% of controll) / Cell Viability (% of Control) 2.8 µM / Cell Viability (% of Control) 8.3 µM / Cell Viability (% of Control) 25 µM: 72 h; for PANC-1 Cell viability (% of controll): dose–response, individual replicates; for Cell Viability (% of Control) 2.8 µM / Cell Viability (% of Control) 8.3 µM / Cell Viability (% of Control) 25 µM: PANC-1, mean ± SD, n = 2
[3] = test system: non-tumorous primary fibroblast cells; assay: CellTiter-Glo luminescent cell viability assay, primary fibroblasts; settings: for Primer fibroblast Cell viability (% of controll): 72 h, dose–response, individual replicates
[4] = test system: Fadu cells; assay: CellTiter-Glo luminescent cell viability assay, Fadu; settings: for Fadu Cell viability (% of controll) / Cell Viability (% of Control) 2.8 µM / Cell Viability (% of Control) 8.3 µM / Cell Viability (% of Control) 25 µM: 72 h; for Fadu Cell viability (% of controll): dose–response, individual replicates; for Cell Viability (% of Control) 2.8 µM / Cell Viability (% of Control) 8.3 µM / Cell Viability (% of Control) 25 µM: Fadu, mean ± SD, n = 2
[5] = test system: PANC-1 and A2058 cells; set-up: method as in PMID 35455465; settings: 24 h exposure time; cited from earlier work

IC50 ([2]; read-out: IC50 Value ± SEM PANC-1, 72 h treatment, best-fit values, n = 3): 10.7 ± 0.31 µM
IC50 ([2]; read-out: PANC-1 IC50 values, Mean, mean of independently fitted replicate IC50 values (Supplement S.6)): 10.6 µM
IC50 ([2]; read-out: PANC-1 IC50 values, individual replicates n1-n3, IC50 independently determined for each replicate measurement (Supplement S.6)): 11.5 µM and 10.3 µM and 10.1 µM
SMILES: NCC#Cc1ccc(CN2C(=O)C3=C(CCN(Cc4ccc(-n5cc(-[c-]6cccc6)nn5)cc4)C3)N3CCN=C23)cc1.[Fe+2].c1cc[cH-]c1 [I/A, reference compound]
viable cells after treatment in colony formation assays [1]: no viable cells could be observed
PANC-1 Cell viability (% of controll) ([2]; 0.7 μM): 106 % of controll and 102 % of controll and 107 % of controll
PANC-1 Cell viability (% of controll) ([2]; 1 μM): 109 % of controll and 116 % of controll and 115 % of controll
PANC-1 Cell viability (% of controll) ([2]; 1.5 μM): 110 % of controll and 105 % of controll and 115 % of controll
PANC-1 Cell viability (% of controll) ([2]; 2.3 μM): 109 % of controll and 107 % of controll and 111 % of controll
PANC-1 Cell viability (% of controll) ([2]; 3.4 μM): 108 % of controll and 109 % of controll and 112 % of controll
PANC-1 Cell viability (% of controll) ([2]; 5.1 μM): 99 % of controll and 97 % of controll and 119 % of controll
PANC-1 Cell viability (% of controll) ([2]; 7.7 μM): 93 % of controll and 79 % of controll and 109 % of controll
PANC-1 Cell viability (% of controll) ([2]; 17.3 μM): 0 % of controll and 2 % of controll and 1 % of controll
PANC-1 Cell viability (% of controll) ([2]; 26 μM): 0 % of controll
Cell Viability (% of Control) 2.8 µM ([2]; first-set screening): 108 ± 4 % of Control
Cell Viability (% of Control) 2.8 µM ([2]; second-set screening): 108 ± 4 % of Control
Cell Viability (% of Control) 8.3 µM ([2]; first-set screening): 39 ± 7 % of Control
Cell Viability (% of Control) 8.3 µM ([2]; second-set screening): 39 ± 7 % of Control
Cell Viability (% of Control) 25 µM ([2]; first-set screening): 0 ± 0 % of Control
Cell Viability (% of Control) 25 µM ([2]; second-set screening): 0 ± 0 % of Control
Selectivity Index (SI) Fibroblast/PANC-1 ([2]; ratio of mean best-fit IC50 for primary fibroblasts and best-fit IC50 for PANC-1): 1.4
Primer fibroblast Cell viability (% of controll) ([3]; 0.7 μM): 96 % of controll and 98 % of controll and 99 % of controll
Primer fibroblast Cell viability (% of controll) ([3]; 1 μM): 100 % of controll and 103 % of controll and 99 % of controll
Primer fibroblast Cell viability (% of controll) ([3]; 1.5 μM): 102 % of controll and 105 % of controll and 104 % of controll
Primer fibroblast Cell viability (% of controll) ([3]; 2.3 μM): 102 % of controll (2×) and 104 % of controll
Primer fibroblast Cell viability (% of controll) ([3]; 3.4 μM): 104 % of controll (2×) and 107 % of controll
Primer fibroblast Cell viability (% of controll) ([3]; 5.1 μM): 107 % of controll and 109 % of controll and 98 % of controll
Primer fibroblast Cell viability (% of controll) ([3]; 7.7 μM): 115 % of controll and 118 % of controll and 109 % of controll
Primer fibroblast Cell viability (% of controll) ([3]; 17.3 μM): 8 % of controll and 42 % of controll and 24 % of controll
Primer fibroblast Cell viability (% of controll) ([3]; 26 μM): 0 % of controll
IC50 ([3]; read-out: IC50 Value ± SEM Primary Fibroblast, 72 h treatment, best-fit values, n = 3): 14.9 ± 0.46 µM
IC50 ([3]; read-out: Primary fibroblast IC50 values, Mean, mean of independently fitted replicate IC50 values (Supplement S.6), ONC201 value mathematically estimated from inflection point): 15.2 µM
IC50 ([3]; read-out: Primary fibroblast IC50 values, individual replicates n1-n3, IC50 independently determined for each replicate (Supplement S.6), ONC201 value mathematically estimated from inflection point, viability stayed above 50%): 13.9 µM and 14.9 µM and 16.8 µM
Fadu Cell viability (% of controll) ([4]; 0.7 μM): 111 % of controll and 115 % of controll and 108 % of controll
Fadu Cell viability (% of controll) ([4]; 1 μM): 110 % of controll and 112 % of controll and 109 % of controll
Fadu Cell viability (% of controll) ([4]; 1.5 μM): 107 % of controll and 108 % of controll and 109 % of controll
Fadu Cell viability (% of controll) ([4]; 2.3 μM): 109 % of controll (2×) and 104 % of controll
Fadu Cell viability (% of controll) ([4]; 3.4 μM): 104 % of controll and 109 % of controll and 110 % of controll
Fadu Cell viability (% of controll) ([4]; 5.1 μM): 105 % of controll and 106 % of controll and 102 % of controll
Fadu Cell viability (% of controll) ([4]; 7.7 μM): 99 % of controll and 86 % of controll and 82 % of controll
Fadu Cell viability (% of controll) ([4]; 17.3 μM): 5 % of controll and 0 % of controll and 1 % of controll
Fadu Cell viability (% of controll) ([4]; 26 μM): 0 % of controll
Cell Viability (% of Control) 2.8 µM ([4]; first-set screening): 105 ± 9 % of Control
Cell Viability (% of Control) 2.8 µM ([4]; second-set screening): 105 ± 9 % of Control
Cell Viability (% of Control) 8.3 µM ([4]; first-set screening): 66 ± 24 % of Control
Cell Viability (% of Control) 8.3 µM ([4]; second-set screening): 66 ± 24 % of Control
Cell Viability (% of Control) 25 µM ([4]; first-set screening): 0 ± 0 % of Control
Cell Viability (% of Control) 25 µM ([4]; second-set screening): 0 ± 0 % of Control
Selectivity Index (SI) Fibroblast/Fadu ([4]; ratio of mean best-fit IC50 for primary fibroblasts and best-fit IC50 for Fadu): 1.5
IC50 ([4]; read-out: Fadu IC50 values, Mean, mean of independently fitted replicate IC50 values (Supplement S.6)): 10 µM
IC50 ([4]; read-out: Fadu IC50 values, individual replicates n1-n3, IC50 independently determined for each replicate measurement (Supplement S.6)): 11.2 µM and 9.27 µM and 9.61 µM
IC50 ([4]; read-out: IC50 Value ± SEM Fadu, 72 h treatment, best-fit values, n = 3): 10 ± 0.23 µM
apoptosis induction [5]: far more efficient in apoptosis induction than ONC201

Reference: paper PMC11642016 (International Journal of Molecular Sciences, 2024)
